Results from publication PMC7145288, “New Peptide-Based Pharmacophore Activates 20S Proteasome” (Molecules, 2020).
“Also recorded” adds a separate entry of the source.

Key:
[1] = molecular target: T1, core proteasome, trypsin-like (T-L) activity (Homo sapiens, UniProt P25787+P60900); assay: T-L peptidase activity of latent 20S proteasome (Boc-LRR-AMC); format: biochemical; settings: 100 μM Boc-LRR-AMC, n = 3–4
T1 construct: Human housekeeping core (20S) proteasome purified from erythrocytes; purchased Boston Biochem, Inc. or Enzo Life Sciences, Inc; host or cells: human erythrocytes (natural source)
Method: (§1) Human housekeeping core (20S) proteasome purified from erythrocytes was purchased from Boston Biochem, Inc. (Cambridge, MA) or from Enzo Life Sciences, Inc. (Farmingdale, NY). Multiple batches of the proteasomes were used and performed reproducibly. The stock proteasome was diluted to 0.2 mg/mL working solution in “dilution buffer” (50 mM Tris/HCl, pH 8, 20% glycerol). The following model peptide substrates, all releasing fluorescent 7-amino-4-methylcoumarin (AMC) reporter group after cleavage, were used: succinyl-LeuLeuValTyr-AMC (for the ChT-L peptidase; SucLLVY-AMC; Bachem Bioscience Inc., Philadelphia, PA), butoxycarbonyl-LeuArgArg-AMC (T-L; Bachem Bioscience Inc., Philadelphia, PA) and carbobenzoxy- LeuLeuGlu-AMC (PGPH; Enzo Life Sciences Inc., Farmingdale, NY). The substrates were used at concentration of 50 μM (ChT-L) or 100 μM (T-L, PGPH). […] After mixing, the plate was transferred to a Fluoroskan Ascent plate reader (Thermo Fisher Scientific Inc., Waltham, MA) for 1 h (37 °C), with fluorescence readouts once per minute. […] The reaction rates were calculated from a linear segment of kinetic curves constructed from measurements in 1-min intervals. Reaction rates were calculated using a linear fit performed with the Slope Analyser and Enzyme Kinetics applications launched within Origin Pro 2019 (OriginLab Corporation, Northampton, MA). […]

[2] = molecular target: T2, core proteasome, post glutamyl peptide hydrolyzing (PGPH) activity (Homo sapiens, UniProt P25787+P60900); assay: PGPH peptidase activity of latent 20S proteasome (Z-LLE-AMC); format: biochemical; settings: 100 μM Z-LLE-AMC, n = 3–4
T2 construct: Human housekeeping core (20S) proteasome purified from erythrocytes; purchased Boston Biochem, Inc. or Enzo Life Sciences, Inc; host or cells: human erythrocytes (natural source)
Method: as §1

SMILES | Effect on T-L activity (in words) [1] | Effect on PGPH activity (in words) [2]
N=C(N)NCCC[C@H](NC(=O)CN)C(=O)N[C@@H](CCCCN)C(=O)N[C@@H](CCCCN)C(=O)N[C@@H](CCCNC(=N)N)C(=O)N[C@@H](CCCNC(=N)N)C(=O)N[C@@H](CCC(N)=O)C(=O)N1Cc2ccccc2C[C@H]1C(=O)N1[C@@H](C(=O)N[C@@H](CCCNC(=N)N)C(=O)N2CCC[C@H]2C(=O)N[C@@H](CO)C(=O)O)C[C@H]2CCCC[C@H]21 [(5)] | weak inhibitory effects; also recorded: did not seem to significantly affect | weak inhibitory effects; also recorded: did not seem to significantly affect
NCCCC[C@H](NC(=O)[C@H](CCCCN)NC(=O)[C@H](CCCCN)NC(=O)c1cc(NC(=O)[C@H](CCCCN)NC(=O)[C@H](CCCCN)NC(=O)[C@@H](N)CCCCN)cc(NC(=O)[C@H](CCCCN)NC(=O)[C@H](CCCCN)NC(=O)[C@@H](N)CCCCN)c1)C(=O)O [(8)] | weak inhibitory effects; also recorded: did not seem to significantly affect | weak inhibitory effects; also recorded: did not seem to significantly affect
